# Measured values as given in US20250195553A1, “Use of Genipin-1-B-D-Gentiobioside in Preparation of Drug” (Guizhou Bailing Group Pharmaceutical Co., Ltd., priority 2023, published 2025).
# Assays:
# [1] = system: Human Respiratory Syncytial Virus (RSV); experiment: Mouse pneumonia model infected with RSV, nebulization: lung index; assay type: in vivo
# Method: […] BALB/c mice, weighing 10±1 g, were randomly divided into four groups: a normal control group, a model control group, a high-dose Genipin-1-β-D-gentiobioside group (75 mg/ml), and a low-dose Genipin-1-β-D-gentiobioside group (37.5 mg/ml). Each group consisted of 10 mice, with an equal number of males and females. Except for the normal control group, all mice were lightly anesthetized with isoflurane and infected with respiratory syncytial virus (RSV) via intranasal administration, with each mouse receiving 35 μl of the virus. On the day of infection, the treatment groups began inhalation administration. Each group received nebulization for 25 minutes once daily for four consecutive days. The normal control group and the model control group received nebulized saline under the same conditions. On the fifth day, after weighing, the mice were sacrificed by cervical dislocation, and their lung tissues were dissected, weighed, and used to calculate the lung index and lung index inhibition rate. The lung tissues were also retained for virus load, pathological examination, and inflammatory factor detection. The results were statistically analyzed using the t-test for intergroup comparisons.
# [2] = system: SARS-CoV-2; experiment: Protective effect against death in SARS-CoV-2 infected mice; assay type: in vivo, hACE2 transgenic C57BL/6 mice; details: for Number of Survivors / Number of Deaths: 8 mice; for Number of Deaths: 5-day
# Method: 1.1 Test Drug: Genipin-1-β-D-gentiobioside. […] Dosage for mice: 37.5 mg/kg and 75 mg/kg, administered by intraperitoneal injection once daily for 5 consecutive days.
# 1.2 Experimental Animals: human angiotensin-converting enzyme 2 (hACE2) transgenic C57BL/6 mice, aged 6˜7 weeks, weighing 18˜25 g, a total of 32 mice provided by GemPharmatech Co., Ltd., with a license number of SCXK (Su) 2018-008.
# 2.1 Grouping and Drug Administration: hACE2 transgenic C57BL/6 mice were divided into four groups, namely the blank control group, the SARS-CoV-2 infection group, the Genipin-1-β-D-gentiobioside (37.5 mg/kg) treatment group, and the Genipin-1-β-D-gentiobioside (75 mg/kg) treatment group, with 8 mice in each group. Except for the normal group, which received intranasal administration of Phosphate Buffered Saline (PBS), the other groups were infected with 10^4 Plaque Forming Unit (PFU) of Severe Acute Respiratory Syndrome Coronavirus 2 (SARS-CoV-2) virus via intranasal instillation. Two hours' post-infection, the treatment groups received intraperitoneal injections of the drug once daily for 5 consecutive days. Mouse deaths were recorded daily after infection, and the 5-day mortality rate was calculated. At the end of the experiment, the lung tissues were collected and homogenized for virus titer detection.
# [3] = 37.5 mg/ml nebulization 25 min once daily 4 days
# [4] = 75 mg/ml nebulization 25 min once daily 4 days
# [5] = 37.5 mg/kg intraperitoneal once daily 5 days
# [6] = 75 mg/kg intraperitoneal once daily 5 days
compound,measurement,setting,value
COC(=O)C1=CO[C@@H](O[C@@H]2O[C@H](CO[C@@H]3O[C@H](CO)[C@@H](O)[C@H](O)[C@H]3O)[C@@H](O)[C@H](O)[C@H]2O)[C@@H]2C(CO)=CC[C@H]12 [Genipin-1-β-D-gentiobioside],Inhibition Rate (lung index),[1]; [3],68.79%
same,Lung Index,[1]; [3],0.70 ± 0.09 Lung weight/100 g body weight
same,Inhibition Rate (lung index),[1]; [4],88.35%
same,Lung Index,[1]; [4],0.67 ± 014 Lung weight/100 g body weight
same,Death Rate,[2]; [5],37.5%
same,Survival Rate,[2]; [5],62.5%
same,Number of Survivors,[2]; [5],5
same,Number of Deaths,[2]; [5],3
same,Death Rate,[2]; [6],25%
same,Survival Rate,[2]; [6],75%
same,Number of Survivors,[2]; [6],6
same,Number of Deaths,[2]; [6],2
